Experimental findings from US4650799A, “Bis-dioxopiperazine derivatives, process for their preparation, antitumor agents comprising them and compositions containing them” (Zenyaku Kogyo Kabushiki Kaisha, priority 1983, dated 1987) are described below.

In data set [1] the test system is Colon adenocarcinoma No. 38. As to the kind of experiment: Animal Test on Colon Adenocarcinoma No. 38 (growth inhibition). In kind it is in vivo, mice [BDF1 (C57BL/6×DBA/2)]. The note with it: 60 mg/kg daily, orally, 8 days; tumor weight on 30th day. How it is done:
(§1) Antitumor activities of bis-dioxopiperazine derivatives which the present invention concerns were verified by the growth inhibition or the increase of life span in experimental animals with syngenic tumors such as P388 lymphocytic leukemia, Lewis lung carcinoma, B-16 melanoma and Colon Adenocarcinoma No. 38 as shown below.
(§2) The treated group to which the compound of the present invention was administered consisted of seven mice, while the control group consisted of ten mice. Six weeks old male mice [BDF1 (C57BL/6×DBA/2), 25±2 g of body weight] were employed as host animals.
Tumor cells (40 mg of fragment) of Colon adenocarcinoma No. 38 were transplanted subcutaneously in inguinal region of each mouse. The treatment began one day after the transplantation and the prescribed dose of each test compound was administered orally to the mice once a day for 8 days.
On the 30th day after the transplantation, the tumors of all the mice were excised and weighed. Antitumor activity of the test compound was evaluated by the rate of growth inhibition (G.I.%) which was calculated in the same manner as used in the animal test on Lewis lung carcinoma.

The next data set in a line: Acute Toxicity Test. The note with it: mouse, in vivo. How it is done:
The test group to which the compound of the present invention was administered consisted of ten mice. Five weeks old male mice (ddY, 23±2 g of body weight) were employed as test animals.

The subject of another data set is Lewis lung carcinoma. Briefly: Animal Test on Lewis Lung Carcinoma (growth inhibition, metastasis). In kind it is in vivo, mice [BDF1 (C57BL/6×DBA/2)]. The note with it: orally, 8 days, tumor weight on 20th day. How it is done:
as §1, §2
Tumor cells (5×10^5) of Lewis lung carcinoma were transplanted subcutaneously in inguinal region of each mouse. The treatment began one day after the transplantation and the prescribed dose of each test compound was administered orally to the mice once a day for 8 days.
On the 20th day after the transplantation, the tumors of all the mice were excised and weighed. Antitumor activity of the test compound was evaluated by the rate of growth inhibition (G.I.%) which was calculated with the following formula. [formula] T: mean tumor weight of treated mice C: mean tumor weight of control mice

Data set [2] concerns P388 lymphocytic leukemia. As to the kind of experiment: Animal Test on P388 Lymphocytic Leukemia (increase in life span). The data set is classed as in vivo, mice [CDF1 (BALB/c×DBA/2)]. To be noted: Mus musculus, P388, ip, i.p.; for ILS at 20 mg/kg / ILS at 60 mg/kg: 216 h; for ILS at 20 mg/kg: 20 mg/kg × 9 days; for ILS at 60 mg/kg: 60 mg/kg × 9 days; for ILS at 200 mg/kg: 200 mg/kg × 2 (1st and 5th day). How it is done:
The treated group to which the compound of the present invention was administered consisted of seven mice, while the control group consisted of ten mice. Six weeks old male mice [CDF1 (BALB/c×DBA/2), 25±2 g of body weight] were employed as host animals.
Tumor cells (1.0×10^6) of P388 lymphocytic leukemia were transplanted intraperitoneally into each mouse. The treatment began one day after the transplantation and the prescribed dose of each test compound was administered intraperitoneally to the mice once a day for 9 days or on the 1st and 5th day.
Antitumor activity of the test compound was evaluated by the rate of increase in life span (I.L.S.%) which was calculated with the following formula. [formula] T: mean survival time of treated mice C: mean survival time of control mice

For the next data set, the system named is B-16 melanoma. Briefly: Animal Test on B-16 Melanoma (increase in life span). The note with it: Mus musculus, B16, ip, 192 h, i.p., 8 days; for ILS at 20 mg/kg: 20 mg/kg daily; for ILS at 30 mg/kg: 30 mg/kg daily. The data set is classed as in vivo, mice [BDF1 (C57BL/6×DBA/2)]. How it is done: The treated group to which the compound of the present invention was administered consisted of seven mice, while the control group consisted of ten mice. Six weeks old male mice [BDF1 (C57BL/6×DBA/2) 25±2 g of body weight] were employed as host animals.
Tumor cells (5×10^5) of B-16 melanoma were transplanted intraperitoneally into each mouse. The treatment began one day after the transplantation and the prescribed dose of each test compound was administered intraperitoneally to the mice once a day for 8 days.
Antitumor activity of the test compound was evaluated by the rate of increase in life span (I.L.S.%) which was calculated in the same manner as used in the animal test on P388 lymphocytic leukemia.

Each structure is given as a SMILES string.

For the compound `CC(=O)OCN1C(=O)CN(CCN2CC(=O)N(COC(C)=O)C(=O)C2)CC1=O` [1,2-Bis(4-acetoxymethyl-3,5-dioxopiperazin-1-yl)ethane], the G.I. in data set [1] was 68.0%; in the data set with Lewis lung carcinoma (60 mg/kg daily), 79.6%. Also, the LD50 was more than 1000 mg/kg in the data set “Acute Toxicity Test” (ip, 14 days observation) and more than 2000 mg/kg in the data set “Acute Toxicity Test” (po). For the same compound, the increase in lifespan (ILS) at 20 mg/kg was 63% in data set [2] and 39% in the data set on B-16 melanoma. This compound came in with an ILS at 60 mg/kg in data set [2] of 118%. Also, the ILS at 200 mg/kg in data set [2] is 45%.
For the compound `O=C(CCl)OCN1C(=O)CN(CCN2CC(=O)N(COC(=O)CCl)C(=O)C2)CC1=O` [1,2-Bis(4-chloroacetoxymethyl-3,5-dioxopiperazin-1-yl)ethane], in the data set with Lewis lung carcinoma (50 mg/kg daily), the G.I. came to 66.8%. Besides, in data set [2], the increase in life span (ILS) at 20 mg/kg came to 54% and the ILS at 200 mg/kg was 38%. In the data set with B-16 melanoma, the ILS at 20 mg/kg amounted to 38%.
In the case of `COC(=O)OCN1C(=O)CN(CCN2CC(=O)N(COC(=O)OC)C(=O)C2)CC1=O` [1,2-Bis(4-methoxycarbonyloxymethyl-3,5-dioxopiperazin-1-yl)ethane], the LD50 was approximately 500 mg/kg in the data set “Acute Toxicity Test” (ip, 14 days observation) and more than 2000 mg/kg in “Acute Toxicity Test” (po). For the same compound, the G.I. in the data set with Lewis lung carcinoma (60 mg/kg daily) came to 57.7%. Also, in data set [2], the ILS at 20 mg/kg is 75%. Besides, in data set [2], the ILS at 200 mg/kg was 103%. In the data set on B-16 melanoma, this compound yielded an ILS at 30 mg/kg of 78%.
Regarding `O=C(OCN1C(=O)CN(CCN2CC(=O)N(COC(=O)c3ccccc3Cl)C(=O)C2)CC1=O)c1ccccc1Cl` [1,2-Bis(4-o-chlorobenzoyloxymethyl-3,5-dioxopiperazin-1-yl)ethane], in the data set on Lewis lung carcinoma (40 mg/kg daily), the G.I. is 43.7%. Moreover, the ILS at 20 mg/kg in data set [2] was found to be 55%; with B-16 melanoma, 65%. In addition, in data set [2], the ILS at 200 mg/kg was found to be 90%.
In data set [2], `O=C(Cc1ccccc1Cl)OCN1C(=O)CN(CCN2CC(=O)N(COC(=O)Cc3ccccc3Cl)C(=O)C2)CC1=O` [1,2-Bis(4-o-chlorophenylacetoxymethyl-3,5-dioxopiperazin-1-yl)ethane] registered an ILS at 20 mg/kg of 65% and an ILS at 200 mg/kg of 83%.
As for `COc1ccccc1C(=O)OCN1C(=O)CN(CCN2CC(=O)N(COC(=O)c3ccccc3OC)C(=O)C2)CC1=O` [1,2-Bis(4-o-methoxybenzoyloxymethyl-3,5-dioxopiperazin-1-yl)ethane], in data set [2], the ILS at 20 mg/kg was 113% and the ILS at 200 mg/kg was found to be 99%.
In the same order, the values of `CC(C)(C)C(=O)OCN1C(=O)CN(CCN2CC(=O)N(COC(=O)C(C)(C)C)C(=O)C2)CC1=O` [1,2-Bis(4-pivaloyloxymethyl-3,5-dioxopiperazin-1-yl)ethane] are 53% and 66%.
`O=C(OCN1C(=O)CN(CCN2CC(=O)N(COC(=O)c3cccs3)C(=O)C2)CC1=O)c1cccs1` [1,2-Bis[4-(2-thenoyloxymethyl)-3,5-dioxopiperazin-1-yl]ethane] gave an ILS at 200 mg/kg in data set [2] of 118%.
On to `O=C(OCN1C(=O)CN(CCN2CC(=O)N(COC(=O)c3ccccc3)C(=O)C2)CC1=O)c1ccccc1` [1,2-bis(4-benzoyloxymethyl-3,5-dioxopiperazin-1-yl)ethane], for which, in data set [2], the ILS at 20 mg/kg was found to be 68% and the ILS at 200 mg/kg turned out to be 107%. This compound also displayed an ILS at 20 mg/kg in the data set with B-16 melanoma of 87%.
In data set [2], `CCOC(=O)OCN1C(=O)CN(CCN2CC(=O)N(COC(=O)OCC)C(=O)C2)CC1=O` [1,2-bis(4-ethoxycarbonyloxymethyl-3,5-dioxopiperazin-1-yl)ethane] displayed an ILS at 20 mg/kg of 48% and an ILS at 200 mg/kg of 45%.
Compound `O=C(OCN1C(=O)CN(CCN2CC(=O)N(COC(=O)c3ccccc3F)C(=O)C2)CC1=O)c1ccccc1F` [1,2-bis(4-o-fluorobenzoyloxymethyl-3,5-dioxopiperazin-1-yl)ethane] came in with an ILS at 200 mg/kg in data set [2] of 113%.
As for `O=C(CSc1ccc(Br)cc1)OCN1C(=O)CN(CCN2CC(=O)N(COC(=O)CSc3ccc(Br)cc3)C(=O)C2)CC1=O` [1,2-bis(4-p-bromophenylthioacetoxymethyl-3,5-dioxopiperazin-1-yl)ethane], the ILS at 200 mg/kg in data set [2] stood at 108%.
In data set [2], `O=C(COc1ccc(Cl)cc1)OCN1C(=O)CN(CCN2CC(=O)N(COC(=O)COc3ccc(Cl)cc3)C(=O)C2)CC1=O` [1,2-bis(4-p-chlorophenoxyacetoxymethyl-3,5-dioxopiperazin-1-yl)ethane] had an ILS at 20 mg/kg of 40% and an ILS at 200 mg/kg of 94%.
Consider `O=C(CSc1ccc(F)cc1)OCN1C(=O)CN(CCN2CC(=O)N(COC(=O)CSc3ccc(F)cc3)C(=O)C2)CC1=O` [1,2-bis(4-p-fluorophenylthioacetoxymethyl-3,5-dioxopiperazin-1-yl)ethane], for which, in data set [2], the ILS at 200 mg/kg was 120%. The compound also gave an ILS at 40 mg/kg with B-16 melanoma (40 mg/kg daily) of 83%.
Regarding `COc1ccc(C=CC(=O)OCN2C(=O)CN(CCN3CC(=O)N(COC(=O)C=Cc4ccc(OC)cc4)C(=O)C3)CC2=O)cc1` [1,2-bis(4-p-methoxycinnamoyloxymethyl-3,5-dioxopiperazin-1-yl)ethane], in data set [2], the ILS at 20 mg/kg turned out to be 78% and the ILS at 200 mg/kg turned out to be 36%.
In data set [2], `O=C(Cc1ccccc1)OCN1C(=O)CN(CCN2CC(=O)N(COC(=O)Cc3ccccc3)C(=O)C2)CC1=O` [1,2-bis(4-phenylacetoxymethyl-3,5-dioxopiperazin-1-yl)ethane] yielded an ILS at 20 mg/kg of 143% and an ILS at 200 mg/kg of 204%. Besides, the ILS at 20 mg/kg in the data set on B-16 melanoma is 83%.
Consider `O=C(COc1cc(Cl)c(Cl)cc1Cl)OCN1C(=O)CN(CCN2CC(=O)N(COC(=O)COc3cc(Cl)c(Cl)cc3Cl)C(=O)C2)CC1=O` [1,2-bis[4-(2,4,5-trichlorophenoxyacetoxymethyl)-3,5-dioxopiperazin-1-yl]ethane], for which, in data set [2], the increase in lifespan (ILS) at 20 mg/kg was determined as 65% and the increase in lifespan (ILS) at 200 mg/kg is 94%.
The compound `O=C(OCN1C(=O)CN(CCN2CC(=O)N(COC(=O)c3ccco3)C(=O)C2)CC1=O)c1ccco1` [1,2-bis[4-(2-furoyloxymethyl)-3,5-dioxopiperazin-1-yl]ethane] had an ILS at 200 mg/kg in data set [2] of more than 200%. This compound had an ILS at 20 mg/kg with B-16 melanoma of 88%.
Regarding `CC(C)(Oc1ccc(Cl)cc1)C(=O)OCN1C(=O)CN(CCN2CC(=O)N(COC(=O)C(C)(C)Oc3ccc(Cl)cc3)C(=O)C2)CC1=O` [1,2-bis[4-(2-p-chlorophenoxy-2-methylpropionyloxymethyl)-3,5-dioxopiperazin-1-yl]ethane], in data set [2], the ILS at 20 mg/kg came to 63% and the ILS at 200 mg/kg was determined as 114%. This compound also had an ILS at 30 mg/kg in the data set on B-16 melanoma of 86%.
Regarding `CC(=O)Oc1ccc(C=CC(=O)OCN2C(=O)CN(CCN3CC(=O)N(COC(=O)C=Cc4ccc(OC(C)=O)c(OC(C)=O)c4)C(=O)C3)CC2=O)cc1OC(C)=O` [1,2-bis[4-(3,4-diacetoxycinnamoyloxymethyl)-3,5-dioxopiperazin-1-yl]ethane], in data set [2], the increase in life span (ILS) at 20 mg/kg was determined as 35% and the increase in life span (ILS) at 200 mg/kg worked out at 51%.
As for `O=C(COc1ccc(Cl)cc1Cl)OCN1C(=O)CN(CCN2CC(=O)N(COC(=O)COc3ccc(Cl)cc3Cl)C(=O)C2)CC1=O` [1.2-Bis[4-(2,4-dichlorophenoxyacetoxymethyl)-3,5-dioxopiperazin-1-yl]ethane], in data set [2], the ILS at 20 mg/kg came out at 49%, the ILS at 60 mg/kg was 105% and the ILS at 200 mg/kg was determined as 72%. The ILS at 20 mg/kg with B-16 melanoma is 35%.

What is called LD50 is the dose at which mortality reaches 50%. Lower therefore signals a more toxic substance. For orientation: ILS means the gain in survival time of treated over control animals, in per cent. High values mean much gain in survival, low ones little gain in survival.
